In ChEMBL document CHEMBL5247659, “Design, Structure-Activity Relationships, and In Vivo Evaluation of Potent and Brain-Penetrant Imidazo[1,2-b]pyridazines as Glycogen Synthase Kinase-3β (GSK-3β) Inhibitors” (J Med Chem, 2023):
Each block holds one compound with its values, some of them ahead of it.

What was measured:
[1] = Inhibition of N-terminal 6-His tagged human recombinant GSK3-beta H355L mutant using FL-KRREILSRRP[ps]ERYR-NH2 as substrate incubated for 20 hrs
[2] = target: Glycogen synthase kinase-3 alpha (Homo sapiens, UniProt P49840); assay: Inhibition of full length GST-tagged human recombinant GSK3-alpha using FL-KRREILSRRP[ps]ERYR-NH2 as substrate incubated for 20 hrs
Sequence of Glycogen synthase kinase-3 alpha (P49840 whole entry): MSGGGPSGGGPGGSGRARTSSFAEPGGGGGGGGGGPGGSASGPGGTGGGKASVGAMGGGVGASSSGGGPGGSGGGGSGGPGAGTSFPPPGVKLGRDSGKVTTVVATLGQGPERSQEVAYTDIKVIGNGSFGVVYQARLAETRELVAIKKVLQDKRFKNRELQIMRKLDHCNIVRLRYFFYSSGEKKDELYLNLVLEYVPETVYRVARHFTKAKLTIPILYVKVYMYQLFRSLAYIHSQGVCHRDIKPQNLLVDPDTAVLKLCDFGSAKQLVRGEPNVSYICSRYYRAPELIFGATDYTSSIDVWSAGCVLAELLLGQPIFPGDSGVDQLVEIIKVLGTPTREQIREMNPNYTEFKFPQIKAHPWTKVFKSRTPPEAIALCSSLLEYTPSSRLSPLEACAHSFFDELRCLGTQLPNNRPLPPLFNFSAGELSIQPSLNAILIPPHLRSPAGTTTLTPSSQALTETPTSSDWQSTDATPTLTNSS

[3] = Plasma protein binding in human assessed as unbound fraction at 10 uM measured for 5 hrs by equilibrium dialysis based LC-MS/MS analysis; assay type: ADME, cell-free
[4] = Metabolic stability in mouse liver microsomes assessed as parent compound remaining at 0.5 uM incubated for 10 mins by LC-MS/MS analysis; assay type: ADME, Microsome; conditions: read-out: Stability
[5] = Permeability of compound at pH 5.5 incubated for 4 hrs by PAMPA assay; assay type: ADME; conditions: read-out: permeability
[6] = Metabolic stability in human liver microsomes assessed as parent compound remaining at 0.5 uM incubated for 10 mins by LC-MS/MS analysis; assay type: ADME, Microsome; conditions: read-out: Stability
[7] = Plasma protein binding in mouse assessed as unbound fraction at 10 uM measured for 5 hrs by equilibrium dialysis based LC-MS/MS analysis; assay type: ADME, cell-free
[8] = Inhibition of tau 4R1N phosphorylation (unknown origin) at S396 residue transfected in human U2OS cells coexpressing GFP-tagged beta catenin incubated overnight by high content imaging assay
[9] = Half life in 8 hr fasted C57BL6 mouse at 2 mg/kg, iv; assay type: ADME, organism-based; conditions: in vivo
[10] = Oral bioavailability in 8 hr fasted C57BL6 mouse at 10 mg/kg; assay type: ADME, organism-based; conditions: in vivo
[11] = MRT in 8 hr fasted C57BL6 mouse at 2 mg/kg, iv; assay type: ADME, organism-based; conditions: in vivo
[12] = Permeability across apical to basolateral side in human Caco-2 cells at 3 uM incubated for 2 hrs by LC-MS/MS analysis; assay type: ADME, cell-based; conditions: read-out: permeability
[13] = target: P-glycoprotein (ABCB1) (Homo sapiens, UniProt P08183); assay: Substrate activity at P-glycoprotein in human Caco-2 cells assessed as efflux ratio of permeability across basolateral to apical side over apical to basolateral side at 3 uM incubated for 2 hrs by LC-MS/MS analysis; assay type: ADME, cell-based
Sequence of P-glycoprotein (ABCB1) (P08183 whole entry): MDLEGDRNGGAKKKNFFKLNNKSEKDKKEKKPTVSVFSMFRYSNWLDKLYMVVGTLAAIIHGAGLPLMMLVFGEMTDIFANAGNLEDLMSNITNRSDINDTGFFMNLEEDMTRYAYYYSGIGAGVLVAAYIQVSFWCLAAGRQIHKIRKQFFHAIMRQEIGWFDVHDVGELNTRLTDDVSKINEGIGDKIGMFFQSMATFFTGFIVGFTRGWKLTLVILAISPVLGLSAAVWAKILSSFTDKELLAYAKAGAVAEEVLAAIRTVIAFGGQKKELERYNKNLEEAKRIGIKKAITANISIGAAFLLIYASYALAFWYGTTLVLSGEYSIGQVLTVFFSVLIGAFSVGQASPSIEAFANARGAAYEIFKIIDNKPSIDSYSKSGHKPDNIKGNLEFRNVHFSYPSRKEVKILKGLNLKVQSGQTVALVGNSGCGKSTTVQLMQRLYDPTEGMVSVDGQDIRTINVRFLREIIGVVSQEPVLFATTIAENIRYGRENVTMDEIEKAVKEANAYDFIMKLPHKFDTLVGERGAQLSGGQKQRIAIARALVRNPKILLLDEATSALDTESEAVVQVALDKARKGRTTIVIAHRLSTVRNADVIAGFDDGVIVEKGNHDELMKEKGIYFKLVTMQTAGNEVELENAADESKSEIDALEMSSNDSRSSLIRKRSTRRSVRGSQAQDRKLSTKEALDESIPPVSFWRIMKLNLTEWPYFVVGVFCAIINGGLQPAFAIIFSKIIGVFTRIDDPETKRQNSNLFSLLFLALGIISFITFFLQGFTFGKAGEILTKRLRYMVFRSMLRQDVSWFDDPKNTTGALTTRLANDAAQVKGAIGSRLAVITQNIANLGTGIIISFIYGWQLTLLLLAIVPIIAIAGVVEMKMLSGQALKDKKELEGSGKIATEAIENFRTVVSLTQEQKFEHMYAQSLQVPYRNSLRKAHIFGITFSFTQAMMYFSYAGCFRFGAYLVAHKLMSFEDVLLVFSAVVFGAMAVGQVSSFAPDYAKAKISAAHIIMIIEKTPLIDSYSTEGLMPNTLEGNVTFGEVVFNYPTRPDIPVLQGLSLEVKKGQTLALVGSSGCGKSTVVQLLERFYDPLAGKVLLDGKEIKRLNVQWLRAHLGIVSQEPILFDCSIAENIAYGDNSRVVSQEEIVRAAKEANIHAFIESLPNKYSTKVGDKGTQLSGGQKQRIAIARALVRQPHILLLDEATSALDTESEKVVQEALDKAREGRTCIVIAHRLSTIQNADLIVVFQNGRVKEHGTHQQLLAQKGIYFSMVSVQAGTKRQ

[14] = Volume of distribution at steady state in 8 hr fasted C57BL6 mouse at 2 mg/kg, iv; assay type: ADME, organism-based; conditions: in vivo, read-out: Vdss
[15] = Permeability across basolateral to apical side in human Caco-2 cells at 3 uM incubated for 2 hrs by LC-MS/MS analysis; assay type: ADME, cell-based; conditions: read-out: permeability
[16] = Clearance in 8 hr fasted C57BL6 mouse at 2 mg/kg, iv; assay type: ADME, organism-based; conditions: in vivo
[17] = AUC tot in 8 hr fasted C57BL6 mouse at 10 mg/kg, po; assay type: ADME, organism-based; parameters: dose 10 mg/kg, route po; conditions: in vivo
[18] = Cmax in 8 hr fasted C57BL6 mouse at 10 mg/kg, po; assay type: ADME, organism-based; parameters: dose 10 mg/kg, route po; conditions: in vivo
[19] = Permeability of compound at pH 7.4 incubated for 4 hrs by PAMPA assay; assay type: ADME; conditions: read-out: permeability
[20] = target: Glycogen synthase kinase-3 beta (Homo sapiens, UniProt P49841); assay: Inhibition of GSK3-beta (unknown origin)
Sequence of Glycogen synthase kinase-3 beta (P49841 whole entry): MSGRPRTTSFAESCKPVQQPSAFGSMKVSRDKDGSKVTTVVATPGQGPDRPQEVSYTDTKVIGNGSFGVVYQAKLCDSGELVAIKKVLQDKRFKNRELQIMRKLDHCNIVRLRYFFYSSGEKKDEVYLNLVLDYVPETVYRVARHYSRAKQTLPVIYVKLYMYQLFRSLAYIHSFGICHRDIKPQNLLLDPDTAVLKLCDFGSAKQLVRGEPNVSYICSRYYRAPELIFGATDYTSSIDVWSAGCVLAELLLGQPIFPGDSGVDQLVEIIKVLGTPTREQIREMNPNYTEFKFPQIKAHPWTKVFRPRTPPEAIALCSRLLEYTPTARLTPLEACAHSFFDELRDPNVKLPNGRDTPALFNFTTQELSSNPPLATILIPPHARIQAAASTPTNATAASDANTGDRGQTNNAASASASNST

SMILES: O=C(Nc1cnccc1-c1ccc(F)cc1)c1ccnn2cc(C3CC3)nc12
IC50 [1]: 1.9 nM | IC50 [2]: 0.44 nM

SMILES: O=C(Nc1cnc(Cl)cc1N1CCC(F)(F)CC1)c1ccnn2cc(-c3ccccc3)nc12
IC50 [1]: 14 nM

SMILES: O=C(Nc1cnccc1-c1ccc(F)cc1)c1ccnn2cc(-c3ccccc3)nc12
fraction unbound at 5 h, 10 µM [3]: 0.003 | remaining at 10 min, 0.5 µM [4]: 92% | IC50 [1]: 1.6 nM | Papp at 4 h [5]: 96 ×10⁻⁶ cm/s | remaining at 10 min, 0.5 µM [6]: 91% | IC50 [2]: 1.1 nM | fraction unbound at 5 h, 10 µM [7]: 0.002

SMILES: O=C(Nc1cccnc1)c1ccnn2cc(-c3ccccc3)nc12
IC50 [2]: 6.7 nM

SMILES: O=C(Nc1cnccc1OCC(F)(F)F)c1ccnn2cc(-c3ccccc3)nc12
IC50 [1]: 0.29 nM | IC50 [2]: 0.09 nM

SMILES: Cc1ccncc1NC(=O)c1ccnn2cc(-c3ccccc3)nc12
IC50 [1]: 3.5 nM

SMILES: O=C(Nc1cnccc1-c1ccccc1)c1ccnn2cc(-c3ccccc3)nc12
fraction unbound at 5 h, 10 µM [3]: < 0.001 | IC50 [8]: 910 nM | remaining at 10 min, 0.5 µM [4]: 83% | IC50 [1]: 3.6 nM | Papp at 4 h [5]: 20.2 ×10⁻⁶ cm/s | remaining at 10 min, 0.5 µM [6]: 79% | Papp at 4 h [19]: 28.2 ×10⁻⁶ cm/s | fraction unbound at 5 h, 10 µM [7]: 0.003

SMILES: CS(=O)(=O)c1ccncc1NC(=O)c1ccnn2cc(-c3ccccc3)nc12
IC50 [1]: 1.5 nM

SMILES: COc1cncc(NC(=O)c2ccnn3cc(-c4ccccc4)nc23)c1
IC50 [1]: 37 nM | IC50 [2]: 7.5 nM

SMILES: O=C(Nc1cnccc1N1CCC(F)(F)CC1)c1ccnn2cc(-c3ccccc3)nc12
fraction unbound at 5 h, 10 µM [3]: 0.005 | Papp A→B at 2 h, 3 µM [12]: 7 ×10⁻⁶ cm/s | IC50 [8]: 30 nM | remaining at 10 min, 0.5 µM [4]: 36% | IC50 [1]: 0.37 nM | efflux ratio at 2 h, 3 µM [13]: < 1 | Papp at 4 h [5]: 58.1 ×10⁻⁶ cm/s | Papp B→A at 2 h, 3 µM [15]: 3 ×10⁻⁶ cm/s | remaining at 10 min, 0.5 µM [6]: 40% | Papp at 4 h [19]: 64.2 ×10⁻⁶ cm/s | IC50 [2]: 0.22 nM | fraction unbound at 5 h, 10 µM [7]: 0.002

SMILES: O=C(Nc1cnccc1N1CCOCC1)c1ccnn2cc(-c3ccc(C(F)(F)F)cc3)nc12
IC50 [1]: 0.78 nM | IC50 [2]: 0.23 nM

SMILES: CC(C)Oc1ccncc1NC(=O)c1ccnn2cc(-c3ccccc3)nc12
IC50 [8]: 83 nM | IC50 [1]: 0.7 nM | IC50 [2]: 0.41 nM

SMILES: C[C@H]1COCCN1c1ccncc1NC(=O)c1ccnn2cc(-c3ccccc3)nc12
IC50 [2]: 0.32 nM

SMILES: CC(C)OCCCC(=O)c1n[nH]cc1NC(=O)c1ccccc1
IC50 [20]: 2 nM

SMILES: C[C@@H]1COCCN1c1ccncc1NC(=O)c1ccnn2cc(-c3ccccc3)nc12
IC50 [1]: 3.4 nM

SMILES: O=C(Nc1cnccc1N1CCCCC1)c1ccnn2cc(-c3ccccc3)nc12
IC50 [1]: 1.1 nM | IC50 [2]: 0.24 nM

The remaining lines, values ahead:

IC50 [1]: 7 nM
SMILES: CC1CN(c2ccncc2NC(=O)c2ccnn3ccnc23)CCO1 (centres undefined)

IC50 [1]: 0.82 nM | IC50 [2]: 0.34 nM
SMILES: C[C@@H]1CN(c2ccncc2NC(=O)c2ccnn3cc(-c4ccccc4)nc23)CCO1

IC50 [8]: 41 nM | IC50 [1]: 0.87 nM | IC50 [2]: 1.4 nM
SMILES: O=C(Nc1cnccc1N1CCC(F)(F)CC1)c1ccnn2c(NCC3CC3)cnc12

half-life [9]: 3.1 h | fraction unbound at 5 h, 10 µM [3]: 0.012 | bioavailability [10]: 100% | MRT [11]: 2.4 h | Papp A→B at 2 h, 3 µM [12]: 32.2 ×10⁻⁶ cm/s | IC50 [8]: 36 nM | remaining at 10 min, 0.5 µM [4]: 9% | IC50 [1]: 0.42 nM | efflux ratio at 2 h, 3 µM [13]: < 1 | Vd [14]: 1.5 L/kg | Papp at 4 h [5]: 7.8 ×10⁻⁶ cm/s | Papp B→A at 2 h, 3 µM [15]: 9.9 ×10⁻⁶ cm/s | remaining at 10 min, 0.5 µM [6]: 31% | clearance [16]: 10.6 mL/min/kg | AUC [17]: 47 µM·h | Cmax [18]: 10.7 µM | Papp at 4 h [19]: 29.8 ×10⁻⁶ cm/s | IC50 [2]: 0.21 nM | fraction unbound at 5 h, 10 µM [7]: 0.01
SMILES: O=C(Nc1cnccc1N1CCOCC1)c1ccnn2cc(-c3ccccc3)nc12

IC50 [1]: 0.57 nM | IC50 [2]: 0.38 nM
SMILES: COc1ccccc1-c1cn2nccc(C(=O)Nc3cnccc3N3CCOC(C)C3)c2n1 (centres undefined)

IC50 [1]: 220 nM | IC50 [2]: 510 nM
SMILES: O=C(Nc1cccnc1)c1ccnn2c(NCC3CC3)cnc12

IC50 [1]: 3.5 nM | IC50 [2]: 2 nM
SMILES: O=C(Nc1cnccc1-c1ccccc1)c1ccnn2c(NCC3CC3)cnc12

IC50 [1]: 0.13 nM | IC50 [2]: 0.1 nM
SMILES: C[C@H]1CN(c2ccncc2NC(=O)c2ccnn3cc(-c4ccccc4)nc23)CCO1

IC50 [8]: 120 nM | IC50 [1]: 0.43 nM | IC50 [2]: 0.18 nM
SMILES: O=C(Nc1cnccc1N1CCC(F)(F)CC1)c1ccnn2cc(C3CC3)nc12

IC50 [1]: 63 nM
SMILES: Cc1ccncc1NC(=O)c1ccnn2c(NCC3CC3)cnc12

IC50 [1]: 9 nM
SMILES: O=C(Nc1cnccc1N1CCOCC1)c1ccnn2c(NCC3CC3)cnc12

IC50 [1]: 5.2 nM
SMILES: CC1CN(c2ccncc2NC(=O)c2ccnn3c(NCC4CC4)cnc23)CCO1 (centres undefined)

IC50 [1]: 4.6 nM | IC50 [2]: 2.4 nM
SMILES: O=C(Nc1cnccc1N1CCC(F)(F)CC1)c1ccnn2ccnc12

half-life [9]: 1.1 h | fraction unbound at 5 h, 10 µM [3]: 0.015 | bioavailability [10]: 37% | MRT [11]: 0.6 h | Papp A→B at 2 h, 3 µM [12]: 22.3 ×10⁻⁶ cm/s | IC50 [8]: 60 nM | remaining at 10 min, 0.5 µM [4]: 4% | IC50 [1]: 2.6 nM | efflux ratio at 2 h, 3 µM [13]: < 1 | Vd [14]: 1.9 L/kg | Papp at 4 h [5]: 86.9 ×10⁻⁶ cm/s | Papp B→A at 2 h, 3 µM [15]: 13.3 ×10⁻⁶ cm/s | remaining at 10 min, 0.5 µM [6]: 3% | clearance [16]: 49.5 mL/min/kg | AUC [17]: 3.3 µM·h | Cmax [18]: 1.3 µM | Papp at 4 h [19]: 107 ×10⁻⁶ cm/s | fraction unbound at 5 h, 10 µM [7]: 0.031
SMILES: CC1CN(c2ccncc2NC(=O)c2ccnn3cc(C4CC4)nc23)CCO1 (centres undefined)

IC50 [1]: 6.7 nM
SMILES: CC(C)Oc1ccncc1NC(=O)c1ccnn2c(NCC3CC3)cnc12

IC50 [1]: 1.4 nM | IC50 [2]: 0.57 nM
SMILES: CC1CN(c2ccncc2NC(=O)c2ccnn3cc(-c4ccc(C(F)(F)F)cc4)nc23)CCO1 (centres undefined)
